Measured values as given in ChEMBL document CHEMBL3991601, “The target landscape of clinical kinase drugs” (Science, 2017).
Active and inactive are the calls of the source. Rule as the data show it, for most assays here: actives have a measured Kd and inactives only a lower limit.

Assays:
[1] = target: RAC-gamma serine/threonine-protein kinase (Homo sapiens, UniProt Q9Y243)
[2] = target: Cyclin-dependent kinase 6 (Homo sapiens, UniProt Q00534)
[3] = target: Adenosine kinase (Homo sapiens, UniProt P55263)
Chain of Adenosine kinase (P55263 whole entry): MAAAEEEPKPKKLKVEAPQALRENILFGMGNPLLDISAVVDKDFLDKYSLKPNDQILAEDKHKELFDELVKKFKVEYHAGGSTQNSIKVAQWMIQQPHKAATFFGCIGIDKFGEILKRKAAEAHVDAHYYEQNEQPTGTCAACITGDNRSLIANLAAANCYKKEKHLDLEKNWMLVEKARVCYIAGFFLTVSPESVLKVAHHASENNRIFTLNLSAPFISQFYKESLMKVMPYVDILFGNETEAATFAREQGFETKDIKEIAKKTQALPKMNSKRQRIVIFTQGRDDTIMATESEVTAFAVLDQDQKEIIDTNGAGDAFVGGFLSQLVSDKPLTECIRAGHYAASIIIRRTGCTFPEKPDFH

[4] = target: Ephrin type-A receptor 7 (Homo sapiens, UniProt Q15375)
Chain of Ephrin type-A receptor 7 (Q15375 whole entry): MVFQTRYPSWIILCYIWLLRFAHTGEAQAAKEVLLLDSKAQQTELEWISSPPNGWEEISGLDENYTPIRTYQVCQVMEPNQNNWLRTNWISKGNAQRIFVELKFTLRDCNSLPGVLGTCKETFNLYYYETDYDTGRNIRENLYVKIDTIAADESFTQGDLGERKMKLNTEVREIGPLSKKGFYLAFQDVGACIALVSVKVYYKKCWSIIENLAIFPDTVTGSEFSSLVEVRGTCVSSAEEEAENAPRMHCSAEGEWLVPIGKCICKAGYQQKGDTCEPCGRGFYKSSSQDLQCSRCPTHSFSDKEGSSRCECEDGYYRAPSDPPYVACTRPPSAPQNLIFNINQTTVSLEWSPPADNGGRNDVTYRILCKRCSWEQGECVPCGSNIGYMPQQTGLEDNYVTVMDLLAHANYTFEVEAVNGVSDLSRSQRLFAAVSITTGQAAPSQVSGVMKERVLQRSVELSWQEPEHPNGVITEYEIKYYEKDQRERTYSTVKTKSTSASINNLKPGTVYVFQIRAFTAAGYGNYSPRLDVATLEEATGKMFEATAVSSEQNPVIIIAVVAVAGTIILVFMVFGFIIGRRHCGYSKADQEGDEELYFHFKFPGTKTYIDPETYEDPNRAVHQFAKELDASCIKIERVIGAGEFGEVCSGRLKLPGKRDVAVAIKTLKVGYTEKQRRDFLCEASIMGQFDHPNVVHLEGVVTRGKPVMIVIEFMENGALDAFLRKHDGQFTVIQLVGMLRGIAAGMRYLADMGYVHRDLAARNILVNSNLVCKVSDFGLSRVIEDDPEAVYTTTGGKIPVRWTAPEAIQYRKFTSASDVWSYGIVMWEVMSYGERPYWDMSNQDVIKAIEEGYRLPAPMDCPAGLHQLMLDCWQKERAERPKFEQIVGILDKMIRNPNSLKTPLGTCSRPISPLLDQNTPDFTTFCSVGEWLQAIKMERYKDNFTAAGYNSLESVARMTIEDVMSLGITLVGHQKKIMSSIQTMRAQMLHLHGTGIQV

[5] = target: Receptor-interacting serine/threonine-protein kinase 3 (Homo sapiens, UniProt Q9Y572)
[6] = target: Ephrin type-A receptor 2 (Homo sapiens, UniProt P29317)
Chain of Ephrin type-A receptor 2 (P29317 whole entry): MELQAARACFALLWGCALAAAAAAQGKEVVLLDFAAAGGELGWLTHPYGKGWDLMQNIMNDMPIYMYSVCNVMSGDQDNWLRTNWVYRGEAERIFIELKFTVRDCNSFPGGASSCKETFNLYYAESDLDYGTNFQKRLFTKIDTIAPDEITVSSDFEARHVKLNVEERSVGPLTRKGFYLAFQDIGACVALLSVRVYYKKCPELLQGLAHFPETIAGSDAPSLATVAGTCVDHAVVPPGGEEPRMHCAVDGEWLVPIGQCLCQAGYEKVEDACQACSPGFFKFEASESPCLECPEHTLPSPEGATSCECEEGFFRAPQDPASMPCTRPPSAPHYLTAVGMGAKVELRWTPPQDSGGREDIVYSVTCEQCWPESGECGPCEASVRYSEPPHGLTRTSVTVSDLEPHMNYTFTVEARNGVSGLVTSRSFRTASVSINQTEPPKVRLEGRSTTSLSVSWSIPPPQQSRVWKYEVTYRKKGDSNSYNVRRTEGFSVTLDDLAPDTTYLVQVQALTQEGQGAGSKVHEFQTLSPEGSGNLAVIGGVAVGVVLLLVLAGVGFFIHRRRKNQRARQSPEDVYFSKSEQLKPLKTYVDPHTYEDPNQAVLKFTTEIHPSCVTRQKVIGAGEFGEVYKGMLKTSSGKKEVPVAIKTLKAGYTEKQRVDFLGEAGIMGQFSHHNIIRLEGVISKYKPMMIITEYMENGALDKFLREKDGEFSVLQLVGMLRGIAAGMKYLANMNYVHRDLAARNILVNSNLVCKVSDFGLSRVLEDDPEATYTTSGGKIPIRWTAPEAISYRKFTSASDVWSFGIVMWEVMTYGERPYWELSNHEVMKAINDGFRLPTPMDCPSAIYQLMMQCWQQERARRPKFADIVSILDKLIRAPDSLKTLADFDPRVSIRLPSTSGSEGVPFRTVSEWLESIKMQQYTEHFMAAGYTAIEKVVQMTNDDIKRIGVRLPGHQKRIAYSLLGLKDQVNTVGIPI

[7] = target: Cyclin-dependent kinase 3 (Homo sapiens, UniProt Q00526)
Chain of Cyclin-dependent kinase 3 (Q00526 whole entry): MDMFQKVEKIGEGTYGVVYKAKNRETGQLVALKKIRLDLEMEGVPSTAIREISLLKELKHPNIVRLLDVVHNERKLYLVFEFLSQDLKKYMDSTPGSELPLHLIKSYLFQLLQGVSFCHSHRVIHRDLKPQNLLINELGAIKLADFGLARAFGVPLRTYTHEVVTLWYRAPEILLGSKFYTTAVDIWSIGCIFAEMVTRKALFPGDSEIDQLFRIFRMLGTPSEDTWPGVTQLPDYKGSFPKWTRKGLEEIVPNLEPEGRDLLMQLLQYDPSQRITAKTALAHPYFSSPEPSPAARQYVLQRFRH

[8] = target: BMP-2-inducible protein kinase (Homo sapiens, UniProt Q9NSY1)
[9] = target: T1, Tyrosine-protein kinase Tec (Homo sapiens, UniProt P42680)
T1 sequence (P42680 whole entry): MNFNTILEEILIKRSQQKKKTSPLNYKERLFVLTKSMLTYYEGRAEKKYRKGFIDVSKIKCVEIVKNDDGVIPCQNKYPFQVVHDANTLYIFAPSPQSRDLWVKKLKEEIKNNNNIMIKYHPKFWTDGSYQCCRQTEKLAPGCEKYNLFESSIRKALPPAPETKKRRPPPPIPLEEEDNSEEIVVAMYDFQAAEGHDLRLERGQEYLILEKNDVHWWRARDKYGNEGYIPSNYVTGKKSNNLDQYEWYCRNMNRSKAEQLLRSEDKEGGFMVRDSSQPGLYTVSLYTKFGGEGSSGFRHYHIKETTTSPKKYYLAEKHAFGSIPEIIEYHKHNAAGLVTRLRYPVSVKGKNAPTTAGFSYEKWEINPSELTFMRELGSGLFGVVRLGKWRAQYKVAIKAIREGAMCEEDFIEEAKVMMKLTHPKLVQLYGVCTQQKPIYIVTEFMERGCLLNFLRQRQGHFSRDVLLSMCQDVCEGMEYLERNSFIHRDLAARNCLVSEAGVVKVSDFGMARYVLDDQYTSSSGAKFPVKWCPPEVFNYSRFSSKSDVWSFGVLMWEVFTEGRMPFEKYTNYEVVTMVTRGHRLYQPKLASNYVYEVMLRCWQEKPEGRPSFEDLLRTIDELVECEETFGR

[10] = target: Mitogen-activated protein kinase kinase kinase 4 (Homo sapiens, UniProt Q9Y6R4)
[11] = target: Insulin receptor (Homo sapiens, UniProt P06213)
Chain of Insulin receptor (P06213 28-758 limits assumed): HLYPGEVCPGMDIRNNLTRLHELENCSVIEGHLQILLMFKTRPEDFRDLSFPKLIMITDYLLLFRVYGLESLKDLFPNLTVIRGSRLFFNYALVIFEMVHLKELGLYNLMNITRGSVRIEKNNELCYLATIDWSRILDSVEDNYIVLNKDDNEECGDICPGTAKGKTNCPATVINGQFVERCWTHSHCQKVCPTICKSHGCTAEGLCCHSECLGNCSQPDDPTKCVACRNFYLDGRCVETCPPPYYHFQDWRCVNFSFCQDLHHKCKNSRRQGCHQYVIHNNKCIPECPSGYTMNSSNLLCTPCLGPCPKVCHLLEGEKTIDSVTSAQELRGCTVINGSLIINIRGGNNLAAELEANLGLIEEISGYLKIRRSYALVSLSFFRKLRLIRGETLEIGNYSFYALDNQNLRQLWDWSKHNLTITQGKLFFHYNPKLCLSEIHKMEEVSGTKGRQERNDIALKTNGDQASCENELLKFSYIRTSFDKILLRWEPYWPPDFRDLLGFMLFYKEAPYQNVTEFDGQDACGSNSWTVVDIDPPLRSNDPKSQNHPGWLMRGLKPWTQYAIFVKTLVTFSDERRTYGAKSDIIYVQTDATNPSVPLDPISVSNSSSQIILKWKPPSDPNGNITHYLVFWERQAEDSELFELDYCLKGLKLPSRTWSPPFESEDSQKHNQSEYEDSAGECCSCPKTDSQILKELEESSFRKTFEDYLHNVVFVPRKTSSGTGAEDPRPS
Chain of Insulin receptor (P06213 763-1382 limits assumed): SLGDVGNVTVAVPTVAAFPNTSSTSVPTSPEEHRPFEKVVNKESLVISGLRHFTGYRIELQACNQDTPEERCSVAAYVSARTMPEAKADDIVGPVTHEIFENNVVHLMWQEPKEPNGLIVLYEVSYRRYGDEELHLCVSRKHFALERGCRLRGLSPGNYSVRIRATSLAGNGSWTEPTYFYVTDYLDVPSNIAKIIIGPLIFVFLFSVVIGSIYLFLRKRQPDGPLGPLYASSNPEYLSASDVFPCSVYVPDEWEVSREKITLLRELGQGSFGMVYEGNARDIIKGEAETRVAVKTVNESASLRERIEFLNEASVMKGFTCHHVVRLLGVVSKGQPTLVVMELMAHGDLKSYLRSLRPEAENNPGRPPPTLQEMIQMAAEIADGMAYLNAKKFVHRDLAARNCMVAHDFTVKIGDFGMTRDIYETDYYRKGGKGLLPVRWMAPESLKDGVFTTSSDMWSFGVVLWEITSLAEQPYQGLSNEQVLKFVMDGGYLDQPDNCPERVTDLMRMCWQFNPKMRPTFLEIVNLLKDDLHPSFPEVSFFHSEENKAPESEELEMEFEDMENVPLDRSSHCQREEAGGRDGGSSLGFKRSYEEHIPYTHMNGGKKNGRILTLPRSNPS

[12] = target: Ribosomal protein S6 kinase alpha-1 (Homo sapiens, UniProt Q15418)
[13] = target: T2, Beta-adrenergic receptor kinase 1 (Homo sapiens, UniProt P25098)
T2 sequence (P25098 whole entry): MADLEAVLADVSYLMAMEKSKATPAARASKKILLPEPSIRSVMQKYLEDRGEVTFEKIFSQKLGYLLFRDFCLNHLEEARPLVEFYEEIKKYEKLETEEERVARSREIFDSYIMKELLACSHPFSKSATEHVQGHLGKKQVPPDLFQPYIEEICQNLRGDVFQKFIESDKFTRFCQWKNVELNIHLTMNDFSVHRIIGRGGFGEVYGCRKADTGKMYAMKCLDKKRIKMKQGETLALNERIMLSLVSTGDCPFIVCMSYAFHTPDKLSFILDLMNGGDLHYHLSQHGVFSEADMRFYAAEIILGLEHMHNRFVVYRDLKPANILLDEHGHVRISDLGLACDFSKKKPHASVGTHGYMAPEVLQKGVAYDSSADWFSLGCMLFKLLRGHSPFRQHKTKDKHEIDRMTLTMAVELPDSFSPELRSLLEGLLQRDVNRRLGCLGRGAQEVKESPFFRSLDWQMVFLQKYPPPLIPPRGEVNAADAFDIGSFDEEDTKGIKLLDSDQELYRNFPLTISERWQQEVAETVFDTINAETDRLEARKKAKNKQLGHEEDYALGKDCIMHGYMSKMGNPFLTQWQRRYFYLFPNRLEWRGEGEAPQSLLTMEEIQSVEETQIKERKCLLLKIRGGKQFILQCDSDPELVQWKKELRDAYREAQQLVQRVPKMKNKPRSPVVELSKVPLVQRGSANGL

[14] = target: Myosin light chain kinase, smooth muscle (Homo sapiens, UniProt Q15746)
[15] = target: U5 small nuclear ribonucleoprotein 200 kDa helicase (Homo sapiens, UniProt O75643)
[16] = target: Calcium/calmodulin-dependent protein kinase kinase 2 (Homo sapiens, UniProt Q96RR4)
Chain of Calcium/calmodulin-dependent protein kinase kinase 2 (Q96RR4 whole entry): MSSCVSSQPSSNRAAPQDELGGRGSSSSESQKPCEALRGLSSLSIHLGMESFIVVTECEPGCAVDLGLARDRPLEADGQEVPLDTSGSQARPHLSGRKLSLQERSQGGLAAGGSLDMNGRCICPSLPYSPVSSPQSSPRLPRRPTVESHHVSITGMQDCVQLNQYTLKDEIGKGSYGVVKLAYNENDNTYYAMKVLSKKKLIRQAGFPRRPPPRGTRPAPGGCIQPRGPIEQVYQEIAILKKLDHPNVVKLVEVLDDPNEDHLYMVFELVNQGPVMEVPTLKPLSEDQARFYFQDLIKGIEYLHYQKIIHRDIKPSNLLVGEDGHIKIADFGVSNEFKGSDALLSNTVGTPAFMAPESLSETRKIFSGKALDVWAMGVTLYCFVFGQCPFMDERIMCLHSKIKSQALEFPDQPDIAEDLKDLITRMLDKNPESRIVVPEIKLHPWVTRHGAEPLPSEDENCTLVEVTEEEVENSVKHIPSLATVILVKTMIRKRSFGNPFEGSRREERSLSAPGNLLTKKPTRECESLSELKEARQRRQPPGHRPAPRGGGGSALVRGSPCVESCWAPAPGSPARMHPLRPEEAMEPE

[17] = target: T3, Peroxisomal acyl-coenzyme A oxidase 3 (Homo sapiens, UniProt O15254)
T3 sequence (O15254 whole entry): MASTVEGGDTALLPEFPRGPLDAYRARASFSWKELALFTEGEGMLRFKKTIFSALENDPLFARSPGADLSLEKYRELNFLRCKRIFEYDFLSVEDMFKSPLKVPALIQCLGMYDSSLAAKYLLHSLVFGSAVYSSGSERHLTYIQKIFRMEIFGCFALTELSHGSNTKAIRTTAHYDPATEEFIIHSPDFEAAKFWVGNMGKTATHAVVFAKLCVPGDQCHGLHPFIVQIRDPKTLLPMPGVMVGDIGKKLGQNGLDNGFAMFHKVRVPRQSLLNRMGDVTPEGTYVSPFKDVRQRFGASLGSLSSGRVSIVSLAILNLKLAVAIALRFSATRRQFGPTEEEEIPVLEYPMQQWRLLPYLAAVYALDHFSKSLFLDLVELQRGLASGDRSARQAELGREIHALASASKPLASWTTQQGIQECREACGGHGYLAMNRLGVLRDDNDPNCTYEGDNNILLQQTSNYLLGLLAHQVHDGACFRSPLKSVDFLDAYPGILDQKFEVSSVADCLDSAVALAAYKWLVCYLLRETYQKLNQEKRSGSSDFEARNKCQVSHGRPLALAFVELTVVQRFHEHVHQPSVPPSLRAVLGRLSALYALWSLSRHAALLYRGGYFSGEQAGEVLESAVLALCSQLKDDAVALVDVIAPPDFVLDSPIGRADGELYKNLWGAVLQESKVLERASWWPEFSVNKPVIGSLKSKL
Also: in the data inactive means no Kd found up to 30 µM.

Chain of Cyclin-dependent kinase 6 (Q00534 whole entry): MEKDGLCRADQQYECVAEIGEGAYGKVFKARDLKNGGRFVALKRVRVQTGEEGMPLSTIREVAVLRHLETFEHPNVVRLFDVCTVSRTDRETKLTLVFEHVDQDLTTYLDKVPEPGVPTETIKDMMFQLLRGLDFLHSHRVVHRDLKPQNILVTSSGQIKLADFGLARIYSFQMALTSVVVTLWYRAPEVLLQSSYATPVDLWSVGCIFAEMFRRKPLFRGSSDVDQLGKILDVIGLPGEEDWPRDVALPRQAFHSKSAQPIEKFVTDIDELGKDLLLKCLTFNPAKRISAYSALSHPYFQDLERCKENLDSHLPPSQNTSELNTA

Row | Kd [1] | Kd [2] | Kd [3] | Kd [4] | Kd [5] | Kd [6] | Kd [7] | Kd [8] | Kd [9] | Kd [10] | Kd [11] | Kd [12] | Kd [13] | Kd [14] | Kd [15] | Kd [16] | Kd [17] | Structure (SMILES)
1 | > 30 µM (inactive) | > 30 µM (inactive) | > 30 µM (inactive) | > 30 µM (inactive) | > 30 µM (inactive) | > 30 µM (inactive) | > 30 µM (inactive) | > 30 µM (inactive) | 0.422 µM (active) | > 30 µM (inactive) | > 30 µM (inactive) | > 30 µM (inactive) | > 30 µM (inactive) | > 30 µM (inactive) | > 30 µM (inactive) | > 30 µM (inactive) | > 30 µM (inactive) | C=CC(=O)Nc1cc2c(Nc3ccc(F)c(Cl)c3)ncnc2cc1C#CC(C)(C)N1CCN(C)CC1 [AV-412 FREE BASE]
2 | > 30 µM (inactive) | > 30 µM (inactive) | > 30 µM (inactive) | > 30 µM (inactive) | > 30 µM (inactive) | > 30 µM (inactive) | > 30 µM (inactive) | > 30 µM (inactive) | > 30 µM (inactive) | > 30 µM (inactive) | > 30 µM (inactive) | > 30 µM (inactive) | > 30 µM (inactive) | > 30 µM (inactive) | > 30 µM (inactive) | > 30 µM (inactive) | > 30 µM (inactive) | Cn1cnc2c(F)c(Nc3ccc(Br)cc3F)c(C(=O)NOCCO)cc21 [BINIMETINIB]
3 | > 30 µM (inactive) | > 30 µM (inactive) | > 30 µM (inactive) | > 30 µM (inactive) | > 30 µM (inactive) | > 30 µM (inactive) | > 30 µM (inactive) | > 30 µM (inactive) | > 30 µM (inactive) | > 30 µM (inactive) | > 30 µM (inactive) | > 30 µM (inactive) | > 30 µM (inactive) | > 30 µM (inactive) | > 30 µM (inactive) | > 30 µM (inactive) | > 30 µM (inactive) | CCn1c(C(=O)N(C2CC2)C2CC2)cc2c3c(ncn3C)c(Nc3cc(C)n(C)n3)nc21 [BMS-911543]
4 | > 30 µM (inactive) | > 30 µM (inactive) | > 30 µM (inactive) | > 30 µM (inactive) | > 30 µM (inactive) | > 30 µM (inactive) | > 30 µM (inactive) | > 30 µM (inactive) | > 30 µM (inactive) | > 30 µM (inactive) | > 30 µM (inactive) | > 30 µM (inactive) | > 30 µM (inactive) | > 30 µM (inactive) | > 30 µM (inactive) | > 30 µM (inactive) | > 30 µM (inactive) | COc1c(OCCCN2CCOCC2)ccc2c1N=C(NC(=O)c1cnc(N)nc1)N1CCN=C21 [COPANLISIB]
5 | > 30 µM (inactive) | > 30 µM (inactive) | > 30 µM (inactive) | > 30 µM (inactive) | > 30 µM (inactive) | > 30 µM (inactive) | > 30 µM (inactive) | > 30 µM (inactive) | > 30 µM (inactive) | > 30 µM (inactive) | > 30 µM (inactive) | > 30 µM (inactive) | > 30 µM (inactive) | > 30 µM (inactive) | > 30 µM (inactive) | > 30 µM (inactive) | > 30 µM (inactive) | COCC(=O)NC/C=C/c1ccc2ncnc(Nc3ccc(Oc4ccc(C)nc4)c(C)c3)c2c1 [CP-724714]
6 | > 30 µM (inactive) | > 30 µM (inactive) | > 30 µM (inactive) | > 30 µM (inactive) | 0.011 µM (active) | > 30 µM (inactive) | > 30 µM (inactive) | > 30 µM (inactive) | > 30 µM (inactive) | > 30 µM (inactive) | > 30 µM (inactive) | > 30 µM (inactive) | > 30 µM (inactive) | > 30 µM (inactive) | > 30 µM (inactive) | > 30 µM (inactive) | > 30 µM (inactive) | Cc1cccc(-c2nn3c(c2-c2ccnc4ccc(C(N)=O)cc24)CCC3)n1 [GALUNISERTIB]

Row | Structure (SMILES) | Kd [1] | Kd [2] | Kd [3] | Kd [4] | Kd [5] | Kd [6] | Kd [7] | Kd [8] | Kd [9] | Kd [10] | Kd [11] | Kd [12] | Kd [13] | Kd [14] | Kd [15] | Kd [16] | Kd [17]
7 | COc1cc([C@@H]2c3cc4c(cc3[C@H](O)[C@H]3COC(=O)[C@@H]23)OCO4)cc(OC)c1OC [AXL-1717] | > 30 µM (inactive) | > 30 µM (inactive) | > 30 µM (inactive) | > 30 µM (inactive) | > 30 µM (inactive) | > 30 µM (inactive) | > 30 µM (inactive) | > 30 µM (inactive) | > 30 µM (inactive) | > 30 µM (inactive) | > 30 µM (inactive) | > 30 µM (inactive) | > 30 µM (inactive) | > 30 µM (inactive) | > 30 µM (inactive) | > 30 µM (inactive) | > 30 µM (inactive)
8 | NC(=O)Nc1cc(-c2cccc(F)c2)sc1C(=O)N[C@H]1CCCNC1 [AZD-7762] | > 30 µM (inactive) | > 30 µM (inactive) | > 30 µM (inactive) | > 30 µM (inactive) | > 30 µM (inactive) | > 30 µM (inactive) | 0.139 µM (active) | 0.181 µM (active) | 2.61 µM (active) | > 30 µM (inactive) | > 30 µM (inactive) | > 30 µM (inactive) | > 30 µM (inactive) | > 30 µM (inactive) | > 30 µM (inactive) | > 30 µM (inactive) | > 30 µM (inactive)
9 | O=C(Nc1nc2cccc(-c3ccc(CN4CCS(=O)(=O)CC4)cc3)n2n1)C1CC1 [FILGOTINIB] | > 30 µM (inactive) | > 30 µM (inactive) | > 30 µM (inactive) | > 30 µM (inactive) | > 30 µM (inactive) | > 30 µM (inactive) | > 30 µM (inactive) | 6.59 µM (active) | > 30 µM (inactive) | > 30 µM (inactive) | > 30 µM (inactive) | > 30 µM (inactive) | > 30 µM (inactive) | > 30 µM (inactive) | > 30 µM (inactive) | 3.63 µM (active) | > 30 µM (inactive)
